Results taken from US12599134B2, “Herbicidal compositions comprising acetochlor” (BASF SE, priority 2024, dated 2026).

Key:
[1] = test system: emerged weeds; experiment: Post-emergence application in greenhouse trials (scale 0 to 100; expected value by Colby); assay type: in vivo
Experimental: (§1) In the examples below, using the method of S. R. Colby (1967) “Calculating synergistic and antagonistic responses of herbicide combinations”, Weeds 15, p. 22ff., the value E, which is expected if the activity of the individual active compounds is only additive, was calculated:
(§2) [formula] • where • X=percent activity using active herbicide A at an application rate a; • Y=percent activity using active herbicide B (e.g. acetochlor) at an application rate b; • E=expected activity (in %) by A+B at application rates a+b.
(§3) If the value found experimentally is higher than the value E calculated according to Colby, a synergistic effect is present.
The culture containers used were plastic pots containing loamy sand with approximately 3.0% of humus as substrate. The seeds of the test plants were sown separately for each species.
[…] To this end, the test plants were either sown directly, and grown in the same containers, or they were first grown separately as seedlings and transplanted into the test containers a few days prior to treatment.
Depending on the species, the plants were kept at 10-25° C. and 20-35° C., respectively. The test period extended over 2 to 4 weeks. During this time, the plants were tended and their response to the individual treatments was evaluated.
(§4) Evaluation was carried out using a scale from 0 to 100. 100 means no emergence of the plants, or complete destruction of at least the above-ground parts, and 0 means no damage or normal course of growth. A good herbicidal activity is given at values of at least 70, and very good herbicidal activity is given at values of at least 85.
Herbicide A-1 and acetochlor were, together with addition of 0.5% MSO (methylated sed oil) as adjuvant, formulated in water as distribution medium (water volume 200 l/ha) and sprayed with commercial flat fan nozzles.
Herbicide A-1, acetochlor and mesotrione were, together with addition of 0.5 v/v % MSO (methylated sed oil) as adjuvant, formulated in water as distribution medium (water volume 200 l/ha) and sprayed with commercial flat fan nozzles.
Herbicide A-1, acetochlor and topramezone were, together with addition of 0.5 v/v % MSO (methylated sed oil) as adjuvant, formulated in water as distribution medium (water volume 200 l/ha) and sprayed with commercial flat fan nozzles.

[2] = test system: emerged weeds; experiment: Post-emergence application in field trials (expected value by Colby); assay type: in vivo
Experimental: as §1, §2, §3, §4
Herbicide A-1 and acetochlor were, together with addition of 0.25% MSO (methylated sed oil) as adjuvant, formulated in water as distribution medium (water volume 200 l/ha) and sprayed with commercial flat fan nozzles.

[3] = ABUTH, growth stage 15, 7 DAT, g ai/ha: A-1 0.5, B 200, C-24 50
[4] = ABUTH, growth stage 15, 7 DAT, g ai/ha: A-1 0.5, B 200, C-25 3.125
[5] = ABUTH, growth stage 15, 21 DAT, g ai/ha: A-1 0.25, B 200, C-24 50
[6] = AVEFA, growth stage 11, 7 DAT, g ai/ha: A-1 2, B 200, C-25 3.125
[7] = AVEFA, growth stage 11, 21 DAT, g ai/ha: A-1 2, B 200, C-24 50
[8] = AVEFA, growth stage 11, 21 DAT, g ai/ha: A-1 2, B 200, C-25 3.125
[9] = AVEFA, growth stage 12, 7 DAT, g ai/ha: A-1 2, B 400
[10] = AVEFA, growth stage 12, 19 DAT, g ai/ha: A-1 2, B 400
[11] = BRADC, growth stage 11, 21 DAT, g ai/ha: A-1 2, B 200, C-25 3.125
[12] = COMBE, growth stage 13, 21 DAT, g ai/ha: A-1 1, B 200, C-24 50
[13] = COMBE, growth stage 13, 21 DAT, g ai/ha: A-1 1, B 200, C-25 3.125
[14] = ECHCG, growth stage 12, 21 DAT, g ai/ha: A-1 2, B 200, C-24 50
[15] = ECHCG, growth stage 12, 21 DAT, g ai/ha: A-1 2, B 200, C-25 3.125
[16] = ECHCG, growth stage 13, 7 DAT, g ai/ha: A-1 0.5, B 400
[17] = ECHCG, growth stage 13, 19 DAT, g ai/ha: A-1 0.5, B 400
[18] = ELEIN, growth stage 14, 7 DAT, g ai/ha: A-1 2, B 400
[19] = ERICA, growth stage 19, 7 DAT, g ai/ha: A-1 2, B 200, C-25 3.125
[20] = GLXMA, growth stage 18, 7 DAT, g ai/ha: A-1 1, B 200, C-25 3.125
[21] = KCHSC, growth stage 29, 21 DAT, g ai/ha: A-1 1, B 200, C-25 3.125
[22] = KCHSC, growth stage 29, 21 DAT, g ai/ha: A-1 2, B 200, C-25 3.125
[23] = LOLMU, growth stage 11, 7 DAT, g ai/ha: A-1 2, B 200, C-25 3.125
[24] = LOLMU, growth stage 11, 21 DAT, g ai/ha: A-1 2, B 200, C-25 3.125
[25] = ZEAMX, growth stage 12, 21 DAT, g ai/ha: A-1 2, B 200, C-24 50
[26] = ZEAMX, growth stage 12, 21 DAT, g ai/ha: A-1 2, B 200, C-25 3.125
[27] = AMARE, growth stage 31-49, height 10-12 cm, 7 DAT, g ai/ha: A-1 12.5, B 1050
[28] = AMARE, growth stage 31-49, height 10-12 cm, 21 DAT, g ai/ha: A-1 12.5, B 1050
[29] = DIGSA, growth stage 22, height 10-15 cm, 7 DAT, g ai/ha: A-1 12.5, B 1050
[30] = DIGSA, growth stage 22, height 10-15 cm, 21 DAT, g ai/ha: A-1 12.5, B 1050
[31] = DIGSA, growth stage 22, height 10-15 cm, 42 DAT, g ai/ha: A-1 12.5, B 1050
[32] = ECHCG, growth stage 22-23, height 19-30 cm, 7 DAT, g ai/ha: A-1 12.5, B 1050
[33] = ECHCG, growth stage 22-23, height 19-30 cm, 7 DAT, g ai/ha: A-1 18, B 1050
[34] = ECHCG, growth stage 22-23, height 19-30 cm, 21 DAT, g ai/ha: A-1 12.5, B 1050
[35] = ECHCG, growth stage 22-23, height 19-30 cm, 21 DAT, g ai/ha: A-1 18, B 1050
[36] = ECHCG, growth stage 22-23, height 19-30 cm, 42 DAT, g ai/ha: A-1 12.5, B 1050
[37] = ECHCG, growth stage 22-23, height 19-30 cm, 42 DAT, g ai/ha: A-1 18, B 1050
[38] = GLXMA, growth stage 12-13, height 7-11 cm, 42 DAT, g ai/ha: A-1 18, B 1050
[39] = HORVW, growth stage 23-29, height 20-25 cm, 21 DAT, g ai/ha: A-1 12.5, B 1050
[40] = HORVW, growth stage 23-29, height 20-25 cm, 21 DAT, g ai/ha: A-1 18, B 1050
[41] = HORVW, growth stage 23-29, height 20-25 cm, 28 DAT, g ai/ha: A-1 12.5, B 1050
[42] = HORVW, growth stage 23-29, height 20-25 cm, 28 DAT, g ai/ha: A-1 18, B 1050
[43] = ZEAMX, growth stage 15-16, height 50-60 cm, 7 DAT, g ai/ha: A-1 12.5, B 1050
[44] = ZEAMX, growth stage 15-16, height 50-60 cm, 21 DAT, g ai/ha: A-1 12.5, B 1050
[45] = ZEAMX, growth stage 15-16, height 50-60 cm, 28 DAT, g ai/ha: A-1 12.5, B 1050
[46] = ZEAMX, growth stage 15-16, height 50-60 cm, 28 DAT, g ai/ha: A-1 18, B 1050

Compound: CCOC(=O)COc1ccccc1Oc1nc(-n2c(=O)cc(C(F)(F)F)n(C)c2=O)c(F)cc1Cl [A-1, ethyl 2-[2-[[3-chloro-5-fluoro-6-[3-methyl-2,6-dioxo-4-(trifluoromethyl)pyrimidin-1-yl]-2-pyridyl]oxy]phenoxy]acetate]
- % Herbicidal activity [1, 3]: 85%
- % Herbicidal activity [1, 4]: 85%
- % Herbicidal activity [1, 5]: 60%
- % Herbicidal activity [1, 6]: 55%
- % Herbicidal activity [1, 7]: 30%
- % Herbicidal activity [1, 8]: 30%
- % Herbicidal activity [1, 9]: 75%
- % Herbicidal activity [1, 10]: 75%
- % Herbicidal activity [1, 11]: 30%
- % Herbicidal activity [1, 12]: 80%
- % Herbicidal activity [1, 13]: 80%
- % Herbicidal activity [1, 14]: 30%
- % Herbicidal activity [1, 15]: 30%
- % Herbicidal activity [1, 16]: 40%
- % Herbicidal activity [1, 17]: 15%
- % Herbicidal activity [1, 18]: 75%
- % Herbicidal activity [1, 19]: 80%
- % Herbicidal activity [1, 20]: 90%
- % Herbicidal activity [1, 21]: 60%
- % Herbicidal activity [1, 22]: 75%
- % Herbicidal activity [1, 23]: 10%
- % Herbicidal activity [1, 24]: 10%
- % Herbicidal activity [1, 25]: 40%
- % Herbicidal activity [1, 26]: 40%
- % Herbicidal activity [2, 27]: 95%
- % Herbicidal activity [2, 28]: 80%
- % Herbicidal activity [2, 29]: 75%
- % Herbicidal activity [2, 30]: 70%
- % Herbicidal activity [2, 31]: 70%
- % Herbicidal activity [2, 32]: 55%
- % Herbicidal activity [2, 33]: 55%
- % Herbicidal activity [2, 34]: 50%
- % Herbicidal activity [2, 35]: 55%
- % Herbicidal activity [2, 36]: 45%
- % Herbicidal activity [2, 37]: 50%
- % Herbicidal activity [2, 38]: 85%
- % Herbicidal activity [2, 39]: 70%
- % Herbicidal activity [2, 40]: 80%
- % Herbicidal activity [2, 41]: 95%
- % Herbicidal activity [2, 42]: 95%
- % Herbicidal activity [2, 43]: 80%
- % Herbicidal activity [2, 44]: 70%
- % Herbicidal activity [2, 45]: 40%
- % Herbicidal activity [2, 46]: 70%

Compound: CCOCN(C(=O)CCl)c1c(C)cccc1CC [B, acetochlor]
- % Herbicidal activity [1, 3]: 0%
- % Herbicidal activity [1, 4]: 0%
- % Herbicidal activity [1, 5]: 0%
- % Herbicidal activity [1, 6]: 0%
- % Herbicidal activity [1, 7]: 0%
- % Herbicidal activity [1, 8]: 0%
- % Herbicidal activity [1, 9]: 0%
- % Herbicidal activity [1, 10]: 0%
- % Herbicidal activity [1, 11]: 5%
- % Herbicidal activity [1, 12]: 5%
- % Herbicidal activity [1, 13]: 5%
- % Herbicidal activity [1, 14]: 5%
- % Herbicidal activity [1, 15]: 5%
- % Herbicidal activity [1, 16]: 10%
- % Herbicidal activity [1, 17]: 60%
- % Herbicidal activity [1, 18]: 0%
- % Herbicidal activity [1, 19]: 15%
- % Herbicidal activity [1, 20]: 0%
- % Herbicidal activity [1, 21]: 0%
- % Herbicidal activity [1, 22]: 0%
- % Herbicidal activity [1, 23]: 0%
- % Herbicidal activity [1, 24]: 0%
- % Herbicidal activity [1, 25]: 5%
- % Herbicidal activity [1, 26]: 5%
- % Herbicidal activity [2, 27]: 40%
- % Herbicidal activity [2, 28]: 25%
- % Herbicidal activity [2, 29]: 10%
- % Herbicidal activity [2, 30]: 10%
- % Herbicidal activity [2, 31]: 10%
- % Herbicidal activity [2, 32]: 0%
- % Herbicidal activity [2, 33]: 0%
- % Herbicidal activity [2, 34]: 0%
- % Herbicidal activity [2, 35]: 0%
- % Herbicidal activity [2, 36]: 0%
- % Herbicidal activity [2, 37]: 0%
- % Herbicidal activity [2, 38]: 20%
- % Herbicidal activity [2, 39]: 10%
- % Herbicidal activity [2, 40]: 10%
- % Herbicidal activity [2, 41]: 10%
- % Herbicidal activity [2, 42]: 10%
- % Herbicidal activity [2, 43]: 8%
- % Herbicidal activity [2, 44]: 0%
- % Herbicidal activity [2, 45]: 0%
- % Herbicidal activity [2, 46]: 0%

Compound: Cc1c(C(=O)c2cnn(C)c2O)ccc(S(C)(=O)=O)c1C1=NOCC1 [C-25, topramezone]
- % Herbicidal activity [1, 4]: 50%
- % Herbicidal activity [1, 6]: 10%
- % Herbicidal activity [1, 8]: 10%
- % Herbicidal activity [1, 11]: 55%
- % Herbicidal activity [1, 13]: 35%
- % Herbicidal activity [1, 15]: 80%
- % Herbicidal activity [1, 19]: 35%
- % Herbicidal activity [1, 20]: 20%
- % Herbicidal activity [1, 21]: 10%
- % Herbicidal activity [1, 22]: 10%
- % Herbicidal activity [1, 23]: 0%
- % Herbicidal activity [1, 24]: 0%
- % Herbicidal activity [1, 26]: 0%

Compound: CS(=O)(=O)c1ccc(C(=O)C2C(=O)CCCC2=O)c([N+](=O)[O-])c1 [C-24, mesotrione]
- % Herbicidal activity [1, 3]: 60%
- % Herbicidal activity [1, 5]: 90%
- % Herbicidal activity [1, 7]: 10%
- % Herbicidal activity [1, 12]: 90%
- % Herbicidal activity [1, 14]: 95%
- % Herbicidal activity [1, 25]: 0%
